How the values were obtained:
[1] = tested on: several more stringent distal site tumor models; experiment: Comparison with clinically active alkylating agents in several distal site tumor models; format: in vivo, mice; details: qualitative summary
Description: B16F10 melanoma cells were grown in vitro as monolayers in minimum essential medium with Hank's salts supplemented with 10% fetal bovine serum and 1% 200 mM L-glutamine solution. Solid tumors were produced in C57BL/6 female mice 12- to 14-weeks of age by the intradermal injection in the right flank of each mouse of 0.1 mL of a cell suspension containing 10^6 B16F10 cells/mL from freshly trypsinized cultures. After 10-12 days, animals bearing approximately 100 mm^3 tumors were treated ip with compound III or IV dissolved in 100% DMSO for 6 consecutive days, and tumor volumes were measured on alternate days until reaching 1000 mm^3. […]
Five mice per group were employed in experiments with the B16F10 melanoma, and 8 mice per group with the M5076 sarcoma, the M109 carcinoma and the LX-1 carcinoma. […] Therapeutic results are presented in terms of: (a) increases in lifespan reflected by the relative median survival time (MST) of treated versus control groups (i.e., %T/C values), and by long-term survivors, and (b) primary tumor growth inhibition (i.e., T-C values) determined by calculating the relative median times for treated (T) and control untreated (C) mice to grow tumors of a 0.5 g size for the LX-1 carcinoma or a 1 g size for the murine neoplasms. […]

M109 lung carcinoma = experiment: M109 lung carcinoma, sc implanted; format: in vivo, BALB/c mice
Description: (§1) The M5076 reticulum cell sarcoma was passaged biweekly by sc transfer of tumor fragments into C57BL/6 mice, and the M109 lung carcinoma was similarly passaged in BALB/c mice. The LX-1 human lung carcinoma was passaged sc every two to three weeks in BALB/c-background athymic (nu/nu) mice. For use in these systems, compound III was dissolved in: (a) 100% DMSO and administered by iv injection in a fixed volume of 10 microliters; or (b) DMSO diluted with saline to a final concentration of 10% DMSO and administered iv in a volume of 0.01 milliliter/g of body weight. […] Mitomycin C and cyclophosphamide were dissolved and administered in saline. BCNU and MeCCNU were dissolved in ethanol and diluted 1:9 (v/v) with water prior to administration.
(§2) Five mice per group were employed in experiments with the B16F10 melanoma, and 8 mice per group with the M5076 sarcoma, the M109 carcinoma and the LX-1 carcinoma. A minimum of two dose levels per compound were included in each evaluation and drug therapy was initiated 24 h after tumor implantation for the M5076 sarcoma and M109 carcinoma. In the LX-1 experiment, tumor bearing mice were selected and sorted into treatment and control groups on day 6 post-tumor implant such that all tumor weights ranged from 50-100 mg and median tumor weights per group were reasonably similar. Therapeutic results are presented in terms of: (a) increases in lifespan reflected by the relative median survival time (MST) of treated versus control groups (i.e., %T/C values), and by long-term survivors, and (b) primary tumor growth inhibition (i.e., T-C values) determined by calculating the relative median times for treated (T) and control untreated (C) mice to grow tumors of a 0.5 g size for the LX-1 carcinoma or a 1 g size for the murine neoplasms. Tumor weights were interchangeable with tumor size on the basis of 1 mm^3 =1 mg. […] The activity criterion for tumor inhibition was a delay in tumor growth consistent with one log10 cell kill (LCK). The absolute T-C value needed to attain this level of efficacy varied from experiment to experiment and depended upon the tumor volume doubling time of the control mice in each study. Treated mice dying prior to day 10 in the ip M109 experiment, or dying before their tumors achieved 0.5 g for the LX-1 carcinoma or 1 g in size for all other sc tumor models, were considered to have died from drug toxicity. Groups of mice with more than one death due to drug toxicity were not used in the evaluation of antitumor efficacy. Statistical evaluations of data were performed using Gehan's generalized Wilcoxan test (Gehan, Biometrika, 1965, 52, 203-233).
Compound III was also evaluated against the M109 lung carcinoma implanted subcutaneously (sc). In the initial test using this model, a dose of 50 mg/kg per injection of this compound was administered intravenously (iv) in 10% DMSO in saline every fourth day for a total of three injections. […] Mitomycin C, used as a reference drug, produced a maximum %T/C of 103 and a delay in tumor growth of 10 days (data not shown). A subsequent evaluation of compound III was performed using four different doses on a slightly different schedule, i.e., 24, 32, 48 and 64 mg/kg administered every third day for four total injections, and two vehicles, 10% DMSO in saline and 100% DMSO. […] Cyclophosphamide and mitomycin C were included as reference drugs in the last experiment. The former compound produced a maximum %T/C of 143 and a delay in tumor growth of 8.8 days, while mitomycin C produced a maximum %T/C of 134 and a T-C value of 9.3 days (data not shown). As reported earlier, compound X achieved a maximum %T/C of 136 and a maximum T-C value of 14.5 days against this tumor (Shyam, et al., J. Med. Chem., 1993, 36, 3496).

[2] = tested on: LX-1 human lung carcinoma; experiment: LX-1 human lung carcinoma xenograft, sc in athymic mice; format: in vivo, human tumor in athymic (nu/nu) mice; details: 40 mg/kg/injection, q2d × 5 from day 6, iv, 100% DMSO
Description: as §1, §2
The human lung tumor, LX-1, xenografted sc in athymic mice, was also used to examine the antineoplastic potential of compound III. […]

[3] = experiment a, 50 mg/kg/injection, q4d × 3, iv, 10% DMSO in saline
[4] = experiment b, 64 mg/kg/injection, q3d × 4, iv, 100% DMSO

In the case of CS(=O)(=O)N(CCCl)N(C(=O)NCCCl)S(C)(=O)=O [Compound III, 1,2-bis(methylsulfonyl)-1-(2-chloroethyl)-2-(2-chloroethyl)aminocarbonylhydrazine], the “antitumor activity versus clinical alkylating agents (in words)” value [1] is reported as “better than or equal to some of the best clinically active alkylating agents used for comparison”, the “lethality (in words)” value (M109 lung carcinoma; 48 mg/kg per injection, q3d × 4, iv, 10% DMSO in saline) is reported as “excessively lethal” and the “antitumor effect versus 10% DMSO formulation, statistics (in words)” value (M109 lung carcinoma; 64 mg/kg in 100% DMSO vs best T-C in 10% DMSO in saline, p<0.01) is reported as “statistically superior (p<0.01)”. The “treatment-associated lethalities (in words)” value (M109 lung carcinoma; 64 mg/kg per injection, q3d × 4, iv, 100% DMSO) was “without causing any treatment-associated lethalities”, the “%T/C (median survival time)” value (M109 lung carcinoma; [3]) was 115% and the “T-C, delay in tumor growth” value (M109 lung carcinoma; [3]) was 8.3 days. The “activity assessment of %T/C (in words)” value (M109 lung carcinoma; experiment a, 50 mg/kg/injection, q4d × 3, iv, criterion T/C ≥125%) was “not considered to be an active result”, the “%T/C (median survival time), maximum” value (M109 lung carcinoma; experiment b, 24 mg/kg/injection, q3d × 4, iv, 10% DMSO in saline) was 143% and the “T-C, maximum delay in tumor growth” value (M109 lung carcinoma; experiment b, 32 mg/kg/injection, q3d × 4, iv, 10% DMSO in saline) was 9.3 days. For the same compound, the “%T/C (median survival time), maximum” value (M109 lung carcinoma; [4]) was 145%, the “T-C, delay in tumor growth” value (M109 lung carcinoma; [4]) was 17.8 days and the “T-C, median delay in tumor growth to 0.5 g” value [2] was 14.5 days. For the same compound, the “log10 cell kill (LCK)” value [2] was 1.6 LCK.
